The results in this text go back to ChEMBL document CHEMBL6134778, “Spiro-Azetidine Oxindoles as Long-Acting Injectables for Pre-Exposure Prophylaxis against Respiratory Syncytial Virus Infections” (J Med Chem, 2024).

≈ marks a conversion by molar mass, not a printed value. A value given as a limit tells only on which side of the number the result lay.

For data set [1], the system named is Canis familiaris. Briefly: Particle size for the 50th percentile of the cumulative volume distribution in Beagle dog at 20 mg/kg, IM […]. It is filed as ADME, organism-based, Canis lupus familiaris. To be noted: in vivo.
For data set [2], the system named is Canis familiaris. Briefly: Release rate constant in Beagle dog at 20 mg/kg, IM by LC-MS/MS analysis. It is filed as ADME, organism-based, Canis lupus familiaris. Conditions: in vivo.
A short description of data set [3]: Intrinsic clearance in human liver microsomes assessed per mg protein at 1 uM measured after 60 mins in presence of NADPH by LC-MS/MS analysis. Conditions: read-out: CLH. It is filed as ADME, Microsome. (In general: Microsomes from liver hold many membrane-bound enzymes, among them those of drug oxidation.)
The nature of data set [4]: Volume of distribution at steady state in Beagle dog at 0.25 mg/kg, iv by LC-MS/MS analysis. Conditions: in vivo, read-out: Vdss. It is filed as ADME, organism-based, Canis lupus familiaris.
Data set [5] has as its system Respiratory syncytial virus. Briefly: Antiviral activity against RSV A2 harboring eGFP infected in human HeLa cells assessed as reduction in virus replication measured after 3 days by laser microscopy. To be noted: 72 h. The class given is functional, organism-based.
A short description of data set [6]: Equilibrium solubility of the compound […] at pH 7 measured after 3 days by LC-MS/MS analysis. It is filed as physicochemical. Conditions: time 3 day.
Data set [7] can be described thus: Bioavailability in Beagle dog assessed as dose released at 20 mg/kg, IM by LC-MS/MS analysis. The class given is ADME, organism-based, Canis lupus familiaris. Conditions: in vivo.
Data set [8] relates to Rattus norvegicus. Briefly: Particle size for the 50th percentile of the cumulative volume distribution in Sprague-Dawley rat at 50 mg/kg, IM […]. It is filed as ADME, organism-based. To be noted: in vivo.
Data set [9] relates to HeLa. Briefly: Cytotoxicity against human HeLa cells assessed as reduction in cell viability at highest concentration measured after 3 days by ATPlite assay. It is filed as toxicity, cell-based. Conditions: 72 h, time 3 day. A general note: In ATP-based viability assays light output follows the ATP content of the culture.
The test system of data set [10] is Rattus norvegicus. Briefly: Release rate constant in Sprague-Dawley rat at 50 mg/kg, IM measured over 12 weeks by LC-MS/MS analysis. The class given is ADME, organism-based. Conditions: in vivo, 2016 h.
A short description of data set [11]: Bioavailability in Sprague-Dawley rat assessed as dose released at 50 mg/kg, IM measured over 12 weeks by LC-MS/MS analysis. Conditions: in vivo. It is filed as ADME, organism-based.
Data set [12] is described as follows: Clearance in Sprague-Dawley rat at 1 mg/kg, iv by LC-MS/MS analysis. It is filed as ADME, organism-based. To be noted: in vivo.
Data set [13] in a line: Intrinsic clearance in human hepatocytes assessed per million cells at 1 uM measured after 180 mins by LC-MS/MS analysis. It is filed as ADME, cell-based, Hepatocyte. Conditions: read-out: CLH.
Data set [14] in a line: Clearance in Beagle dog at 0.25 mg/kg, iv by LC-MS/MS analysis. The class given is ADME, organism-based, Canis lupus familiaris. To be noted: in vivo.
The nature of data set [15]: Volume of distribution at steady state in Sprague-Dawley rat at 1 mg/kg, iv by LC-MS/MS analysis. The class given is ADME, organism-based. To be noted: in vivo, read-out: Vdss.
Data set [16] in a line: Thermodynamic solubility in aqueous buffer at pH 7 incubated for 24 hrs by UPLC analysis. The class given is physicochemical. Conditions: read-out: Therm_solubility.
Data set [17] has as its system Respiratory syncytial virus. Briefly: Antiviral activity against RSV A2 harboring eGFP infected in human HeLa cells assessed as reduction in virus replication by measuring 3X protein-adjusted effective concentration for 90% inhibition measured after 3 days in presence of human serum albumin and alpha(1)-acid glycoprotein by laser microscopy. Conditions: time 3 day. The class given is functional.

Data set [18] is described as follows: Chromatographic hydrophobicity index, logD of the compound at pH 7.4 by UPLC analysis. It is filed as physicochemical. To be noted: buffer.

On to `CC(C)C(=O)N1CC2(C1)C(=O)N(Cc1nc3cc(Cl)ccc3n1CCCCF)c1cnccc12`, for which the “Particle size (D50)” value in data set [1] was found to be 5.43 um. The Ka is 0.033 h⁻¹ in data set [2] and 0.013 h⁻¹ in data set [10]. Further, the microsomal CLint at 1 µM in data set [3] is less than 7.7 µL/min/mg. The figures for the Vd in data set [4] and in [15] were 0.82 L/kg and 5.3 L/kg, respectively. In [5], the EC50 – broadly, the concentration giving half of the maximal effect – stood at 1 nM. Also, in data set [6], the solubility – broadly, how much of the substance goes into solution per volume – at 72 h stood at 361 µM (≈ 175 µg/mL). Further, the bioavailability is 122% in [7] and 142% in data set [11]. Also, in data set [8], the “Median particle size (D50)” value is on record as 9.11 um. Also, the Activity entry in data set [9] was “Non-toxic”. In addition, the results for the clearance in [12] and in [14] were 26.3 mL/min/kg and 11.8 mL/min/kg, respectively. Besides, the hepatocyte CLint at 1 µM in data set [13] was less than 1.2 µL/min/1e6 cells. Moreover, in data set [16], the solubility thermodynamic at 24 h stood at 44 µg/mL (≈ 90.9 µM). Besides, in [17], the “protein-adjusted EC90” value was 0.017 µg/mL. This compound also gave a CHI in data set [18] of 2.14.
As to `CC(C)NC(=O)N1CC2(C1)C(=O)N(Cc1nc3cc(Cl)ccc3n1CCCC(F)(F)F)c1cnccc12`, the “Particle size (D50)” value in [1] was found to be 5.03 um. The Ka came out at 0.01 h⁻¹ in [2] and 0.005 h⁻¹ in data set [10]. For the same compound, the microsomal CLint at 1 µM in data set [3] is less than 7.7 µL/min/mg. In addition, the results for the Vd in data set [4] and in data set [15] were 1.66 L/kg and 1.94 L/kg, respectively. The EC50 in data set [5] was determined as 0.23 nM. Besides, in data set [6], the concentration in solution (solubility at 72 h) came to 11 µM (≈ 5.88 µg/mL). Also, the bioavailability in [7] turned out to be 90%; in data set [11] it was 107%. Further, in data set [8], the “Median particle size (D50)” value came to 4.36 um. In data set [9], the Activity entry is on record as “Non-toxic”. For the same compound, the clearance (commonly a measure of how efficiently the substance is removed, as volume per time) in data set [12] was 36.9 mL/min/kg; in [14], 14.6 mL/min/kg. The hepatocyte CLint at 1 µM in [13] was less than 1.2 µL/min/1e6 cells. Moreover, the solubility thermodynamic at 24 h in data set [16] was less than 0.1 µg/mL. In data set [17], the “protein-adjusted EC90” value is 0.0037 µg/mL. In data set [18], this compound registered a CHI of 2.39.
With `O=C1N(Cc2nc3cc(Cl)ccc3n2CCCC(F)(F)F)c2cnccc2C12CN(S(=O)(=O)C1CC1)C2`, the “Particle size (D50)” value in data set [1] was found to be 15.6 um. Besides, the Ka in data set [2] was determined as 0.01 h⁻¹; in data set [10], 0.003 h⁻¹. For the same compound, the microsomal CLint at 1 µM in data set [3] is less than 7.7 µL/min/mg. The Vd in [4] is 2.65 L/kg; in data set [15], 2.48 L/kg. Also, the EC50 in data set [5] was determined as 0.43 nM. The solubility at 72 h in data set [6] is less than 0.13 µM. Moreover, the bioavailability worked out at 93% in [7] and 88% in data set [11]. Also, in data set [8], the “Median particle size (D50)” value is listed as 15.6 um. Besides, in [9], the Activity entry was “Non-toxic”. The clearance is 43.5 mL/min/kg in [12] and 0.99 mL/min/kg in [14]. The hepatocyte CLint at 1 µM in data set [13] was less than 1.2 µL/min/1e6 cells. Moreover, in data set [16], the solubility thermodynamic at 24 h was less than 0.1 µg/mL. The “protein-adjusted EC90” value in data set [17] worked out at 0.0082 µg/mL. In [18], this compound displayed a CHI of 2.81.
With `CC(C)(O)C(=O)N1CC2(C1)C(=O)N(Cc1nc3cc(Cl)ccc3n1CCCC(F)(F)F)c1ccccc12`, the “Particle size (D50)” value in data set [1] is on record as 1.03 um. The figures for the Ka in data set [2] and in data set [10] were 0.003 h⁻¹ and 0.001 h⁻¹, respectively. The microsomal CLint at 1 µM in data set [3] is less than 7.7 µL/min/mg. The results for the Vd in data set [4] and in [15] were 1.77 L/kg and 2.78 L/kg, respectively. Also, the EC50 in [5] was determined as 1 nM. In data set [6], this compound returned a solubility at 72 h of 0.74 µM (≈ 0.396 µg/mL). Moreover, the figures for the bioavailability in data set [7] and in [11] were 102% and 85%, respectively. For the same compound, the “Median particle size (D50)” value in data set [8] turned out to be 1.02 um. In addition, the Activity entry in data set [9] is recorded as “Non-toxic”. In addition, the clearance turned out to be 9.3 mL/min/kg in data set [12] and 3.56 mL/min/kg in data set [14]. Further, the hepatocyte CLint at 1 µM in data set [13] is less than 1.2 µL/min/1e6 cells. For the same compound, in [16], the solubility thermodynamic at 24 h is less than 0.1 µg/mL. For the same compound, the “protein-adjusted EC90” value in data set [17] turned out to be 0.031 µg/mL. Further, the CHI in [18] was determined as 2.84.
